Test results as given in PubChem BioAssay (NCI).
Converted amounts (≈) assume the structure as drawn.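 Five concentrations, 48 hours, 96-well plates. At the GI50, growth is halved. TGI is the concentration that stops growth completely.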

How the values were obtained:
Assay in all cases: NCI tumour cell line growth inhibition, 48 h
DU-145 prostate = tested on: DU-145 prostate
PC-3 prostate = tested on: PC-3 prostate
MDA-N = tested on: MDA-N
T-47D breast = tested on: T-47D breast
MDA-MB-231 breast = tested on: MDA-MB-231 breast
KM20L2 colon = tested on: KM20L2 colon
DLD-1 colon = tested on: DLD-1 colon
LXFL 529 NSCLC = tested on: LXFL 529 NSCLC
M19-MEL melanoma = tested on: M19-MEL melanoma
HOP-18 NSCLC = tested on: HOP-18 NSCLC
XF 498 CNS = tested on: XF 498 CNS
RXF-631 renal = tested on: RXF-631 renal
DMS 273 small cell lung = tested on: DMS 273 small cell lung
SN12K1 renal = tested on: SN12K1 renal
P388/ADR leukemia = tested on: P388/ADR leukemia
P388 leukemia = tested on: P388 leukemia

CC1(C)OCC(CO)(CO)CO1
TGI (DU-145 prostate): > 100 µM
TGI (PC-3 prostate): > 100 µM
TGI (MDA-N): > 100 µM
TGI (T-47D breast): > 100 µM
TGI (MDA-MB-231 breast): > 100 µM

Cc1cc(=O)oc2c1cc1ccc3cccc4ccc2c1c34
TGI (KM20L2 colon): > 100 µM
TGI (DLD-1 colon): > 100 µM
TGI (LXFL 529 NSCLC): > 100 µM
TGI (M19-MEL melanoma): > 100 µM
TGI (HOP-18 NSCLC): > 100 µM

O=C=C=P(c1ccccc1)(c1ccccc1)c1ccccc1
TGI (DLD-1 colon): > 100 µM
TGI (LXFL 529 NSCLC): > 100 µM
TGI (XF 498 CNS): 89.7 µM
TGI (RXF-631 renal): > 100 µM
TGI (DMS 273 small cell lung): > 100 µM
TGI (M19-MEL melanoma): > 100 µM
TGI (HOP-18 NSCLC): > 100 µM

ICC1CCCO1 (stereo unspecified)
TGI (KM20L2 colon): > 100 µM
TGI (DLD-1 colon): > 100 µM
TGI (LXFL 529 NSCLC): > 100 µM
TGI (XF 498 CNS): > 100 µM
TGI (RXF-631 renal): > 100 µM
TGI (DMS 273 small cell lung): > 100 µM
TGI (HOP-18 NSCLC): > 100 µM

O=Cc1cn(CCCCCCCCn2cc(C=O)c3ccccc32)c2ccccc12
TGI (DU-145 prostate): > 10 µM
TGI (PC-3 prostate): > 10 µM
TGI (MDA-N): > 10 µM
TGI (T-47D breast): > 10 µM
TGI (MDA-MB-231 breast): > 10 µM

CC(=O)[O-].CC(=O)[O-].O=C(N/N=C/c1cc(Cl)cc(Cl)c1[OH2+])c1ccncc1.[Mn+2]
TGI (KM20L2 colon): 16 µM

Cc1cc(O)c2c(c1)C(=O)c1c(c(O)cc(O)c1-c1c(O)cc(O)c3c1C(=O)c1cc(C)cc(O)c1C3=O)C2=O
TGI (SN12K1 renal): 39.9 µM
TGI (KM20L2 colon): 52.2 µM
TGI (DLD-1 colon): 59.5 µM
TGI (P388/ADR leukemia): 99.8 µM
TGI (XF 498 CNS): 53.4 µM
TGI (DMS 273 small cell lung): 30.3 µM
TGI (M19-MEL melanoma): 59.4 µM
TGI (HOP-18 NSCLC): 39.9 µM
TGI (P388 leukemia): 63 µM

CC(C)c1oc(=O)cc2c1C(O)C1OC(=O)C3(C)C(O)C4OC4C2(C)C13 (stereo unspecified)
TGI (SN12K1 renal): 9.37 µM
TGI (KM20L2 colon): 12.8 µM
TGI (DLD-1 colon): 8.57 µM
TGI (P388/ADR leukemia): 16.6 µM
TGI (XF 498 CNS): 1.95 µM
TGI (DMS 273 small cell lung): 5.93 µM
TGI (M19-MEL melanoma): 7.75 µM
TGI (HOP-18 NSCLC): 24.3 µM
TGI (P388 leukemia): 1.23 µM

Cc1nc2nc(C)n(CCN3CCOCC3)c(=O)c2c(-c2cccc([N+](=O)[O-])c2)c1C(=O)CCCCCCCCCCN1CCC(c2ccccc2)(c2ccccc2)CC1
GI50 (DU-145 prostate): 2.51 µg/mL (≈ 3.09 µM)
TGI (DU-145 prostate): 4.56 µg/mL
GI50 (MDA-MB-231 breast): 1.68 µg/mL (≈ 2.07 µM)
TGI (MDA-MB-231 breast): 3.53 µg/mL

CC(=O)OCC1(C)C(O)CCC2(C)C1CCC1CC3CC12CCC3(O)CO (stereo unspecified)
TGI (DU-145 prostate): > 100 µM
TGI (PC-3 prostate): > 100 µM
TGI (MDA-N): > 100 µM
TGI (T-47D breast): > 100 µM
TGI (MDA-MB-231 breast): > 100 µM

CCN(CC)CCNc1ccc2ncn3c4ccc(OC)cc4c(=O)c1c23
TGI (DU-145 prostate): 20.7 µM
TGI (KM20L2 colon): 8.76 µM
TGI (DLD-1 colon): 20 µM
TGI (LXFL 529 NSCLC): 20 µM
TGI (XF 498 CNS): 25.1 µM
TGI (PC-3 prostate): 18.8 µM
TGI (RXF-631 renal): 15.8 µM
TGI (MDA-N): 19.6 µM
TGI (DMS 273 small cell lung): 14.9 µM
TGI (T-47D breast): 40.5 µM
TGI (M19-MEL melanoma): 20.4 µM
TGI (HOP-18 NSCLC): 62 µM

c1ccc(C2=NN2c2ccccc2)cc1
TGI (DU-145 prostate): > 100 µM
TGI (PC-3 prostate): > 100 µM
TGI (MDA-N): > 100 µM
TGI (T-47D breast): > 100 µM
TGI (MDA-MB-231 breast): > 100 µM

C=C1CC(OC)(C(OC)C(=O)N[C@H]2OCO[C@H]3C2O[C@H](C[C@@H](COC)OC)C(C)(C)C3OC)O[C@H](C)[C@@H]1C (stereo partly specified)
TGI (SN12K1 renal): 15.2 µM
TGI (KM20L2 colon): > 47 µM
TGI (DLD-1 colon): 9.33 µM
TGI (P388/ADR leukemia): 1.4 µM
TGI (XF 498 CNS): 2.54 µM
TGI (DMS 273 small cell lung): 3.79 µM
TGI (M19-MEL melanoma): 5.93 µM
TGI (HOP-18 NSCLC): 23.9 µM
TGI (P388 leukemia): 0.691 µM

Cc1[nH]c(C)c(CN(C)C)c1CN(C)C
TGI (DU-145 prostate): > 100 µM
TGI (PC-3 prostate): > 100 µM
TGI (MDA-N): > 100 µM
TGI (T-47D breast): > 100 µM
TGI (MDA-MB-231 breast): > 100 µM

CN1CCC2(c3ccccc3)CC(=O)/C(=C/c3ccc(Cl)c(Cl)c3)C1C2 (stereo unspecified)
TGI (DU-145 prostate): 11.9 µM
TGI (PC-3 prostate): 4.52 µM
TGI (MDA-N): 13.9 µM
TGI (T-47D breast): > 41.5 µM
TGI (MDA-MB-231 breast): 3.21 µM

O=C(O)CCC(NC(=O)c1ccc(Nc2cnc3cc(C(F)(F)F)ccc3n2)cc1)C(=O)O (stereo unspecified)
TGI (SN12K1 renal): > 100 µM
TGI (KM20L2 colon): > 100 µM
TGI (DLD-1 colon): > 100 µM
TGI (P388/ADR leukemia): > 100 µM
TGI (XF 498 CNS): > 100 µM
TGI (DMS 273 small cell lung): > 100 µM
TGI (HOP-18 NSCLC): > 100 µM
TGI (P388 leukemia): > 100 µM

CCOP(=O)(C/C=C/Cn1ncc(=O)[nH]c1=O)OCC
TGI (DU-145 prostate): > 100 µM
TGI (PC-3 prostate): > 100 µM
TGI (MDA-N): > 100 µM
TGI (T-47D breast): > 100 µM
TGI (MDA-MB-231 breast): > 100 µM

CC1(c2ccccc2)O[C@@H]2C[C@H]3[C@@H]4CCC5=CC(=O)C=C[C@]5(C)[C@@]4(F)[C@@H](O)C[C@]3(C)[C@]2(C(=O)CO)O1 (stereo partly specified)
TGI (DU-145 prostate): 35 µM
TGI (PC-3 prostate): 30.9 µM
TGI (MDA-N): 35.3 µM
TGI (T-47D breast): 41 µM
TGI (MDA-MB-231 breast): 24.5 µM
